Data reported in US20020111274A1, “1-alkyl-3-[1-(substituted phenyl) benzotriazol-6-yl] uracils” (BASF Aktiengesellschaft, priority 2000, published 2002).

Tests used:
Design in all cases: scale not given here
ABUTH Velvetleaf [1] = assay: Postemergence herbicidal evaluation, ABUTH; type: in vivo, Abutilon theophrasti, Medic.; details: postemergence spray, rated about two-three weeks after treatment
Summary of the method: (§1)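 Seedlings grown about two weeks were sprayed with compound in 80/20 acetone/water containing 1.0% methylated seed oil, at the equivalent of about 0.006 to 0.400 kg/ha, through a nozzle at 40 psi. Plants were kept in the greenhouse and rated visually about two to three weeks after treatment.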

AMBEL Ragweed, Common [2] = assay: Postemergence herbicidal evaluation, AMBEL; type: in vivo, Ambrosia artemisifolia, L.; details: postemergence spray, rated about two-three weeks after treatment
Summary of the method: as §1

CASOB Sicklepod [3] = assay: Postemergence herbicidal evaluation, CASOB; type: in vivo, Cassia obtusifolia, L.; details: postemergence spray, rated about two-three weeks after treatment
Summary of the method: as §1

[4] = system: CHEAL Lambsquarters, Common; assay: Postemergence herbicidal evaluation, CHEAL; type: in vivo, Chenopodium album, L.; details: postemergence spray, rated about two-three weeks after treatment
Summary of the method: as §1

ECHOG Barnyardgrass [5] = assay: Postemergence herbicidal evaluation, ECHOG; type: in vivo, Echinochloa crus-galli, (L.) Beau; details: postemergence spray, rated about two-three weeks after treatment
Summary of the method: as §1

GALAP Galium [6] = assay: Postemergence herbicidal evaluation, GALAP; type: in vivo, Galium aparine; details: postemergence spray, rated about two-three weeks after treatment
Summary of the method: as §1

[7] = system: IPOHE Morningglory, Ivyleaf; assay: Postemergence herbicidal evaluation, IPOHE; type: in vivo, Ipomoea hederacea, (L.) Jacq.; details: postemergence spray, rated about two-three weeks after treatment
Summary of the method: as §1

SETVI Foxtail, Green [8] = assay: Postemergence herbicidal evaluation, SETVI; type: in vivo, Setaria viridis, (L.) Beau; details: postemergence spray, rated about two-three weeks after treatment
Summary of the method: as §1

GLXMAW Soybean, Williams [9] = assay: Postemergence herbicidal evaluation, GLXMAW; type: in vivo, Glycine max, (L.) Merr. cv Williams; details: postemergence spray, rated about two-three weeks after treatment
Summary of the method: as §1

[10] = system: TRZAWR Wheat, Winter, cv Riband; assay: Postemergence herbicidal evaluation, TRZAWR; type: in vivo, Triticum aestivum; details: postemergence spray, rated about two-three weeks after treatment
Summary of the method: as §1

ORYSAT Rice, Tebonnet [11] = assay: Postemergence herbicidal evaluation, ORYSAT; type: in vivo, Oryza sativa, (L.); details: postemergence spray, rated about two-three weeks after treatment
Summary of the method: as §1

ZEAMX Corn, Field [12] = assay: Postemergence herbicidal evaluation, ZEAMX; type: in vivo, Zea mays, L. (Sammel-Bezeichnung); details: postemergence spray, rated about two-three weeks after treatment
Summary of the method: as §1

ABUTH Velvetleaf [13] = assay: Preemergence herbicidal evaluation, ABUTH; type: in vivo, Abutilon theophrasti, Medic.; details: preemergence
Summary of the method: (§2)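 Seeds mixed with potting soil in cups, then sprayed preemergence with aqueous acetone test solution at about 0.013 to 0.800 kg per hectare equivalent. Cups kept under standard greenhouse care; plants rated on a visual scale four to five weeks after treatment.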

AMBEL Ragweed, Common [14] = assay: Preemergence herbicidal evaluation, AMBEL; type: in vivo, Ambrosia artemisifolia, L.; details: preemergence
Summary of the method: as §2

CASOB Sicklepod [15] = assay: Preemergence herbicidal evaluation, CASOB; type: in vivo, Cassia obtusifolia, L.; details: preemergence
Summary of the method: as §2

[16] = system: CHEAL Lambsquarters, Common; assay: Preemergence herbicidal evaluation, CHEAL; type: in vivo, Chenopodium album, L.; details: preemergence
Summary of the method: as §2

ECHOG Barnyardgrass [17] = assay: Preemergence herbicidal evaluation, ECHOG; type: in vivo, Echinochloa crus-galli, (L.) Beau; details: preemergence
Summary of the method: as §2

GALAP Galium [18] = assay: Preemergence herbicidal evaluation, GALAP; type: in vivo, Galium aparine; details: preemergence
Summary of the method: as §2

[19] = system: IPOHE Morningglory, Ivyleaf; assay: Preemergence herbicidal evaluation, IPOHE; type: in vivo, Ipomoea hederacea, (L.) Jacq.; details: preemergence
Summary of the method: as §2

SETVI Foxtail, Green [20] = assay: Preemergence herbicidal evaluation, SETVI; type: in vivo, Setaria viridis, (L.) Beau; details: preemergence
Summary of the method: as §2

GLXMAW Soybean, Williams [21] = assay: Preemergence herbicidal evaluation, GLXMAW; type: in vivo, Glycine max, (L.) Merr. cv Williams; details: preemergence
Summary of the method: as §2

[22] = system: TRZAWR Wheat, Winter, cv Riband; assay: Preemergence herbicidal evaluation, TRZAWR; type: in vivo, Triticum aestivum; details: preemergence
Summary of the method: as §2

ORYSAT Rice, Tebonnet [23] = assay: Preemergence herbicidal evaluation, ORYSAT; type: in vivo, Oryza sativa, (L.); details: preemergence
Summary of the method: as §2

ZEAMX Corn, Field [24] = assay: Preemergence herbicidal evaluation, ZEAMX; type: in vivo, Zea mays, L. (Sammel-Bezeichnung); details: preemergence
Summary of the method: as §2

## CC(C)c1ccc(-n2nnc3cc(F)c(-n4c(=O)cc(C(F)(F)F)n(C)c4=O)cc32)cc1 [Example 21]
ABUTH Velvetleaf [1]; 0.008 kg/ha
  Postemergence herbicidal rating ABUTH: 9.0
ABUTH Velvetleaf [1]; 0.016 kg/ha
  Postemergence herbicidal rating ABUTH: 9.0
ABUTH Velvetleaf [1]; 0.032 kg/ha
  Postemergence herbicidal rating ABUTH: 9.0
ABUTH Velvetleaf [1]; 0.062 kg/ha
  Postemergence herbicidal rating ABUTH: 9.0
AMBEL Ragweed, Common [2]; 0.008 kg/ha
  Postemergence herbicidal rating AMBEL: 2.0
AMBEL Ragweed, Common [2]; 0.016 kg/ha
  Postemergence herbicidal rating AMBEL: 9.0
AMBEL Ragweed, Common [2]; 0.032 kg/ha
  Postemergence herbicidal rating AMBEL: 9.0
AMBEL Ragweed, Common [2]; 0.062 kg/ha
  Postemergence herbicidal rating AMBEL: 9.0
CASOB Sicklepod [3]; 0.008 kg/ha
  Postemergence herbicidal rating CASOB: 0.0
CASOB Sicklepod [3]; 0.016 kg/ha
  Postemergence herbicidal rating CASOB: 0.0
CASOB Sicklepod [3]; 0.032 kg/ha
  Postemergence herbicidal rating CASOB: 1.0
CASOB Sicklepod [3]; 0.062 kg/ha
  Postemergence herbicidal rating CASOB: 2.0
[4]; 0.008 kg/ha
  Postemergence herbicidal rating CHEAL: 8.0
[4]; 0.016 kg/ha
  Postemergence herbicidal rating CHEAL: 4.0
[4]; 0.032 kg/ha
  Postemergence herbicidal rating CHEAL: 9.0
[4]; 0.062 kg/ha
  Postemergence herbicidal rating CHEAL: 9.0
ECHOG Barnyardgrass [5]; 0.008 kg/ha
  Postemergence herbicidal rating ECHCG: 0.0
ECHOG Barnyardgrass [5]; 0.016 kg/ha
  Postemergence herbicidal rating ECHCG: 0.0
ECHOG Barnyardgrass [5]; 0.032 kg/ha
  Postemergence herbicidal rating ECHCG: 0.0
ECHOG Barnyardgrass [5]; 0.062 kg/ha
  Postemergence herbicidal rating ECHCG: 0.0
GALAP Galium [6]; 0.008 kg/ha
  Postemergence herbicidal rating GALAP: 2.0
GALAP Galium [6]; 0.016 kg/ha
  Postemergence herbicidal rating GALAP: 4.0
GALAP Galium [6]; 0.032 kg/ha
  Postemergence herbicidal rating GALAP: 4.0
GALAP Galium [6]; 0.062 kg/ha
  Postemergence herbicidal rating GALAP: 9.0
[7]; 0.008 kg/ha
  Postemergence herbicidal rating IPOHE: 9.0
[7]; 0.016 kg/ha
  Postemergence herbicidal rating IPOHE: 9.0
[7]; 0.032 kg/ha
  Postemergence herbicidal rating IPOHE: 6.0
[7]; 0.062 kg/ha
  Postemergence herbicidal rating IPOHE: 9.0
SETVI Foxtail, Green [8]; 0.008 kg/ha
  Postemergence herbicidal rating SETVI: 0.0
SETVI Foxtail, Green [8]; 0.016 kg/ha
  Postemergence herbicidal rating SETVI: 0.0
SETVI Foxtail, Green [8]; 0.032 kg/ha
  Postemergence herbicidal rating SETVI: 5.0
SETVI Foxtail, Green [8]; 0.062 kg/ha
  Postemergence herbicidal rating SETVI: 5.0
GLXMAW Soybean, Williams [9]; 0.008 kg/ha
  Postemergence herbicidal rating GLXMAW: 4.5
GLXMAW Soybean, Williams [9]; 0.016 kg/ha
  Postemergence herbicidal rating GLXMAW: 5.0
GLXMAW Soybean, Williams [9]; 0.032 kg/ha
  Postemergence herbicidal rating GLXMAW: 5.5
GLXMAW Soybean, Williams [9]; 0.062 kg/ha
  Postemergence herbicidal rating GLXMAW: 5.5
[10]; 0.008 kg/ha
  Postemergence herbicidal rating TRZAWR: 3.5
[10]; 0.016 kg/ha
  Postemergence herbicidal rating TRZAWR: 4.0
[10]; 0.032 kg/ha
  Postemergence herbicidal rating TRZAWR: 4.0
[10]; 0.062 kg/ha
  Postemergence herbicidal rating TRZAWR: 4.0
ORYSAT Rice, Tebonnet [11]; 0.008 kg/ha
  Postemergence herbicidal rating ORYSAT: 3.0
ORYSAT Rice, Tebonnet [11]; 0.016 kg/ha
  Postemergence herbicidal rating ORYSAT: 3.5
ORYSAT Rice, Tebonnet [11]; 0.032 kg/ha
  Postemergence herbicidal rating ORYSAT: 3.5
ORYSAT Rice, Tebonnet [11]; 0.062 kg/ha
  Postemergence herbicidal rating ORYSAT: 3.5
ZEAMX Corn, Field [12]; 0.008 kg/ha
  Postemergence herbicidal rating ZEAMX: 4.5
ZEAMX Corn, Field [12]; 0.016 kg/ha
  Postemergence herbicidal rating ZEAMX: 4.5
ZEAMX Corn, Field [12]; 0.032 kg/ha
  Postemergence herbicidal rating ZEAMX: 4.5
ZEAMX Corn, Field [12]; 0.062 kg/ha
  Postemergence herbicidal rating ZEAMX: 5.0
ABUTH Velvetleaf [13]; rate 0.016 kg/ha
  ABUTH herbicidal rating: 0.0
ABUTH Velvetleaf [13]; rate 0.032 kg/ha
  ABUTH herbicidal rating: 4.5
ABUTH Velvetleaf [13]; rate 0.062 kg/ha
  ABUTH herbicidal rating: 6.0
ABUTH Velvetleaf [13]; rate 0.125 kg/ha
  ABUTH herbicidal rating: 9.0
AMBEL Ragweed, Common [14]; rate 0.016 kg/ha
  AMBEL herbicidal rating: 0.0
AMBEL Ragweed, Common [14]; rate 0.032 kg/ha
  AMBEL herbicidal rating: 3.0
AMBEL Ragweed, Common [14]; rate 0.062 kg/ha
  AMBEL herbicidal rating: 3.5
AMBEL Ragweed, Common [14]; rate 0.125 kg/ha
  AMBEL herbicidal rating: 7.5
CASOB Sicklepod [15]; rate 0.016 kg/ha
  CASOB herbicidal rating: 0.0
CASOB Sicklepod [15]; rate 0.032 kg/ha
  CASOB herbicidal rating: 0.0
CASOB Sicklepod [15]; rate 0.062 kg/ha
  CASOB herbicidal rating: 1.5
CASOB Sicklepod [15]; rate 0.125 kg/ha
  CASOB herbicidal rating: 2.0
[16]; rate 0.016 kg/ha
  CHEAL herbicidal rating: 9.0
[16]; rate 0.032 kg/ha
  CHEAL herbicidal rating: 9.0
[16]; rate 0.062 kg/ha
  CHEAL herbicidal rating: 9.0
[16]; rate 0.125 kg/ha
  CHEAL herbicidal rating: 9.0
ECHOG Barnyardgrass [17]; rate 0.016 kg/ha
  ECHCG herbicidal rating: 0.0
ECHOG Barnyardgrass [17]; rate 0.032 kg/ha
  ECHCG herbicidal rating: 0.0
ECHOG Barnyardgrass [17]; rate 0.062 kg/ha
  ECHCG herbicidal rating: 1.0
ECHOG Barnyardgrass [17]; rate 0.125 kg/ha
  ECHCG herbicidal rating: 3.5
GALAP Galium [18]; rate 0.016 kg/ha
  GALAP herbicidal rating: 0.0
GALAP Galium [18]; rate 0.032 kg/ha
  GALAP herbicidal rating: 0.0
GALAP Galium [18]; rate 0.062 kg/ha
  GALAP herbicidal rating: 0.0
GALAP Galium [18]; rate 0.125 kg/ha
  GALAP herbicidal rating: 0.0
[19]; rate 0.016 kg/ha
  IPOHE herbicidal rating: 0.0
[19]; rate 0.032 kg/ha
  IPOHE herbicidal rating: 1.5
[19]; rate 0.062 kg/ha
  IPOHE herbicidal rating: 2.0
[19]; rate 0.125 kg/ha
  IPOHE herbicidal rating: 3.5
SETVI Foxtail, Green [20]; rate 0.016 kg/ha
  SETVI herbicidal rating: 0.0
SETVI Foxtail, Green [20]; rate 0.032 kg/ha
  SETVI herbicidal rating: 2.0
SETVI Foxtail, Green [20]; rate 0.062 kg/ha
  SETVI herbicidal rating: 6.5
SETVI Foxtail, Green [20]; rate 0.125 kg/ha
  SETVI herbicidal rating: 9.0
GLXMAW Soybean, Williams [21]; rate 0.016 kg/ha
  GLXMAW herbicidal rating: 0.0
GLXMAW Soybean, Williams [21]; rate 0.032 kg/ha
  GLXMAW herbicidal rating: 0.0
GLXMAW Soybean, Williams [21]; rate 0.062 kg/ha
  GLXMAW herbicidal rating: 0.5
GLXMAW Soybean, Williams [21]; rate 0.125 kg/ha
  GLXMAW herbicidal rating: 1.0
[22]; rate 0.016 kg/ha
  TRZAWR herbicidal rating: 0.0
[22]; rate 0.032 kg/ha
  TRZAWR herbicidal rating: 0.0
[22]; rate 0.062 kg/ha
  TRZAWR herbicidal rating: 0.0
[22]; rate 0.125 kg/ha
  TRZAWR herbicidal rating: 1.0
ORYSAT Rice, Tebonnet [23]; rate 0.016 kg/ha
  ORYSAT herbicidal rating: 0.0
ORYSAT Rice, Tebonnet [23]; rate 0.032 kg/ha
  ORYSAT herbicidal rating: 0.0
ORYSAT Rice, Tebonnet [23]; rate 0.062 kg/ha
  ORYSAT herbicidal rating: 0.0
ORYSAT Rice, Tebonnet [23]; rate 0.125 kg/ha
  ORYSAT herbicidal rating: 0.0
ZEAMX Corn, Field [24]; rate 0.016 kg/ha
  ZEAMX herbicidal rating: 0.0
ZEAMX Corn, Field [24]; rate 0.032 kg/ha
  ZEAMX herbicidal rating: 0.0
ZEAMX Corn, Field [24]; rate 0.062 kg/ha
  ZEAMX herbicidal rating: 1.0
ZEAMX Corn, Field [24]; rate 0.125 kg/ha
  ZEAMX herbicidal rating: 3.5
